Source: article PMC8915582, “Validated DBS method for filgotinib quantitation in rat dried blood spots and its application to a pharmacokinetic study in rats” (ADMET & DMPK, 2020)
Where two headings read alike, the source gives them in different places. One block for each compound: values may come before it.

Experiments:
[1] = Stability of primary stock solutions in DMSO; assay type: physicochemical; conditions: primary stock in DMSO stored at -20 °C
Experimental: Two separate primary stock solutions of filgotinib were prepared at 1670 μg/mL in DMSO. Appropriate secondary and working stocks of filgotinib were prepared from primary stock by successive dilution of primary stock with methanol:water (80:20, v/v) to prepare the calibration curve (CC) and quality controls (QCs). The IS primary stock solution was made in DMSO at a concentration of 1000 μg/mL, which was diluted with methanol to 500 ng/mL and subsequently used as IS working stock solution. […] Working stock solutions were stored at 4 °C for 25 days.

rheumatoid arthritis = tested on: rheumatoid arthritis; design: method as in PMID 26994322; conditions: approved pan-JAK inhibitors, moderate to severe rheumatoid arthritis; cited from earlier work
[2] = tested on: collagen-induced arthritis model; design: method as in PMID 24006460; conditions: post oral administration in rodents; cited from earlier work
JAK1 = conditions: cited from earlier work
[3] = tested on: rheumatoid arthritis patients; design: method as in PMID 29566740; conditions: monotherapy at 100 or 200 mg once daily or with methotrexate; cited from earlier work
JAK2 = conditions: JAK1 over JAK2; cited from earlier work
[4] = design: method as in Dixit et al. (2020) [10]; conditions: rat, plasma, values in parentheses, ref Dixit et al. (2020) [10], cited from earlier work
[5] = Pharmacokinetic study in rats (oral and intravenous), filgotinib quantified from dried blood spots by LC-MS/MS; assay type: in vivo; conditions: male, Sprague Dawley, whole blood (dried blood spots), rat, DBS blood
Experimental: Freshly drawn rat blood was used to prepare the DBS cards. With the help of a calibrated pipette, 25 μL of the respective spiked CC/QC blood or whole blood collected from the pharmacokinetic study (post administration of filgotinib by intravenous and oral routes) was sampled on DBS card. Spiked cards were allowed to dry at ambient room temperature for 3 h and stored appropriately in a sealed bag with desiccant in a desiccator.
Using a hole puncher (Harri-Micro-Punch®), 3 mm diameter disc was punched from the center of each DBS (FTA DMPK-C Card) card directly into micro-centrifuge tubes. To each micro-centrifuge tube, 200 μL of 0.2% formic acid enriched with 100 ng/mL of IS was added, thereafter the contents were vortex mixed for 5 min (Thermomixer®, Eppendorf) and sonicated (Elmasonic S300 H) for 15 min at ambient room temperature. After sonication, to the same micro-centrifuge, 1.0 mL of ethyl acetate was added and the mixtures were vortexed further for 3 min. The samples were centrifuged at 14,000 rpm for 3 min. Clear organic layer (800 μL) was pipetted out after centrifugation and dried under gentle stream of nitrogen (Turbovap®, Zymark®,Kopkinton, MA, USA) at 50 °C. The residue was reconstituted with 200 μL of 0.2% formic acid in acetonitrile and 150 μL clear supernatant was aliquoted into a HPLC vial and 5.0 μL was injected onto the column for LC-MS/MS analysis.
All the animal experiments were approved by Institutional Animal Ethical Committee (IAEC/JDC/2019/189R). Male Sprague Dawley rats (n=8) were procured from Vivo Biotech, Hyderabad, India. The animals were housed in Jubilant Biosys animal house facility in a temperature (22 ± 2 °C) and humidity (30-70%) controlled room (15 air changes/hour) with a 12:12 h light:dark cycles, had free access to rodent feed (Altromin Spezialfutter GmbH & Co. KG., Im Seelenkamp 20, D-32791, Lage, Germany) and water for one week before using for experimental purpose. Following ~12 h fast (during the fasting period animals had free access to water) animals were divided into two groups having four rats in each group. Group I animals (205-210) received filgotinib orally as a suspension formulation (prepared using Tween-80 and 0.5% methyl cellulose) at 10 mg/kg (strength: 1.0 mg/mL; dose volume: 10 mL/kg), whereas Group II animals (215-225 g) received filgotinib intravenously (5% DMSO, 5% Solutol:absolute alcohol (1:1, v/v) and 90% of normal saline; strength: 0.5 mg/ml; dose volume: 4 ml/kg) at 2.0 mg/kg dose. Post-dosing serial blood samples (50 μL) were collected through retro-orbital plexus into polypropylene tubes containing K2.EDTA solution as an anti-coagulant at 0.25, 0.5, 1, 2, 4, 8, 10, 12 and 24 h (for oral study) and 0.083, 0.25, 0.5, 1, 2, 4, 8 and 24 h (for intravenous study). Animals were allowed to access feed 2 h post-dosing.
Blood concentration-time data of filgotinib was analyzed by non-compartmental method and the relevant pharmacokinetic parameters namely AUC0-∞ (area under the blood concentration-time curve from time zero to infinite time), C0 (extrapolated blood concentration at time zero), Cmax (maximum blood concentration), Tmax (time to reach Cmax), Vd (volume of distribution), CL (clearance) and t½ (terminal half-life) were calculated using Phoenix WinNonlin software (version 8.1; Pharsight Corporation, Mountain View, CA). Absolute oral bioavailability (F) was calculated using this formula [Dose (i.v.) × AUC(0-∞)oral / Dose (oral) × AUC(0-∞)i.v.] × 100.

SMILES: C[C@@H]1CCN(C(=O)CC#N)C[C@@H]1N(C)c1ncnc2[nH]ccc12 [Tofacitinib, tofacitinib]
time primary stock solution found to be stable [1]: 50 days
toxicities (rheumatoid arthritis): dose-related toxicities

SMILES: CCS(=O)(=O)N1CC(CC#N)(n2cc(-c3ncnc4[nH]ccc34)cn2)C1 [baricitinib]
toxicities (rheumatoid arthritis): dose-related toxicities

bioavailability ([5]; oral 10 mg/kg vs intravenous 2.0 mg/kg, read-out: F (absolute oral bioavailability)): 42.5%
SMILES: O=C(Nc1nc2cccc(-c3ccc(CN4CCS(=O)(=O)CC4)cc3)n2n1)C1CC1 [filgotinib]
disease progression in a collagen-induced arthritis model [2]: dose-dependent reduction of disease progression
tolerability, efficacy and safety in Phase-3 clinical trials [3]: well tolerated, showed efficacy and was found to be safe
Vd ([4]; intravenous, 2.0 mg/kg): 5.41 ± 0.77 L/kg
F (absolute oral bioavailability) ([4]; oral, 10 mg/kg): 36.3%
